Measured values reported in patent US20030109584A1, “Stabilized pharmaceutically effective composition and pharmaceutical formulation comprising the same” (priority 2000, published 2003).

Key:
Assay type in all cases: physicochemical
[1] = pH of pravastatin sodium crystals kept in normal air, nitrogen or carbon dioxide atmosphere
Experimental: Another observation was that carbon dioxide from the air may irreversibly and reversibly bind to the active substance and can cause a drop of pH. This is illustrated by the following experiment: 5 g of pravastatin sodium were dissolved in 30 ml of methanol, the pH was adjusted to 10 with 3% aqueous solution of NaOH. 400 ml of ethylacetate were added and the crystals of pravastatin sodium were formed. Crystals were filtered and dried and then put into three different atmospheres: normal air, nitrogen atmosphere and carbon dioxide atmosphere. In normal air and in the nitrogen atmosphere the pH remained the same during a period of 24 hours (normal air: pH 9.2, nitrogen: pH 9.5), but in the carbon dioxide atmosphere the pH dropped in the first two minutes from 9.2 to 6.9. After 12 minutes the pH was 6.6 and after 1 hour the pH was 6.5. After that, the pH remained constant.

[2] = pH value of 1% or 5% aqueous solution of the active substance, after preparing and after 1 week on air
Experimental: Within the scope of this invention the term “which will provide a pH value” means a pH value that is measured in an aqueous solution or dispersion of an active substance or of a mixture of the active substance with the buffering substance or of a stabilized active substance according to this invention or of a pharmaceutical formulation or of a stabilized pharmaceutical formulation of an active substance obtained according to this invention. The concentration of such an aqueous solution or dispersion is 1% or 5%. The measurement procedure is described in Examples 1-11.

[3] = Stability of pravastatin (lactone and impurity formation) in buffers of pH 7 to 11; conditions: buffers pH 7 to 11 (phosphate, citrate, borate); 1, 5, 13 and 28 days
Source text: The third observation is that a sufficient stabilization of the active substance is already obtained at a pH of at least 7.0, but a beneficially high stability is effected at a pH of at least 8.0. We have noticed that at a pH below 8 the formation of lactone has occurred and also the amount of other impurities has increased. The presence of humidity in the air and a carbon dioxide-rich atmosphere makes the negative effect of a low pH even stronger. This is illustrated by the following experiment: Pravastatin was dissolved in different buffers with the pH in a range between 7 and 11 (F=phosphate, C=citrate, B=borate). The occurrence of pravastatin in lactone form and the formation of different degradation products (impurities) were measured after 1, 5, 13 and 28 days.

CC[C@H](C)C(=O)O[C@H]1C[C@H](O)C=C2C=C[C@H](C)[C@H](CC[C@@H](O)C[C@@H](O)CC(=O)O)[C@H]21 [Pravastatin Sodium]
pH in carbon dioxide atmosphere after 12 minutes ([1]; carbon dioxide atmosphere, 12 minutes): 6.6
pH in carbon dioxide atmosphere after 1 hour ([1]; carbon dioxide atmosphere, 1 hour, constant afterwards): 6.5
pH in carbon dioxide atmosphere after two minutes ([1]; carbon dioxide atmosphere, first two minutes): 6.9
pH at start in carbon dioxide atmosphere ([1]; carbon dioxide atmosphere, starting value): 9.2
pH in normal air ([1]; crystals from solution adjusted to pH 10 with NaOH, normal air, remained the same during 24 hours): 9.2
pH in nitrogen atmosphere ([1]; nitrogen atmosphere, remained the same during 24 hours): 9.5
Value pH (1%) after 1 week on air atm ([2]; 1% aqueous solution, after 1 week in air atmosphere): 7.2
Value pH (1%) after preparing ([2]; 1% aqueous solution, after preparing): 7.4
Value pH (5%) after 1 week on air atm ([2]; 5% aqueous solution, after 1 week in air atmosphere): 7.6
Value pH (5%) after preparing ([2]; 5% aqueous solution, after preparing): 7.7
pH at which formation of lactone occurred and other impurities increased [3]: below 8
